Measured values taken from US12171230B2, “Herbicidal compositions” (Bayer Aktiengesellschaft, priority 2018, dated 2024).

Tests used:
Type in all cases: in vivo
[1] = system: Kochia scoparia; experiment: Post-emergence herbicidal action against Kochia scoparia; details: g of a.i./ha by row: 30, 5, 5 + 30
From the text: (§1) The following abbreviations are used in the description and the tables that follow: • g of a.i./ha=grams of active substance (active ingredient) (=100% active compound) per hectare; • The sum total of the effects of the individual applications is reported under E^A; • expected values according to Colby are each reported under E^C.
(§2) The rating period is reported in days after application (DAT).

[2] = system: Alopecurus myosuroides; experiment: Post-emergence herbicidal action against Alopecurus myosuroides
In short: (§3)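 Each treatment was applied at a rate expressed as g of 100% active compound per ha, and the effect was scored a given number of days later (DAT). Reference values for combinations were calculated two ways: E^A, the sum of individual effects, and E^C, Colby's expected value.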

[3] = system: Digitaria sanguinalis; experiment: Post-emergence herbicidal action against Digitaria sanguinalis; details: (Z61) post-emergence; g of a.i./ha: 180, 100, 100 + 180
In short: (§4)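 Post-emergence foliar application: sandy-loam pots, greenhouse, treatment at three-leaf stage, 300–800 l/ha spray volume. Readout is visual % effect at 3–4 weeks, compared with the Colby expected value for mixtures.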

[4] = system: Polygonum convolvulus; experiment: Post-emergence herbicidal action against Polygonum convolvulus
From the text: as §1, §2

[5] = system: Amaranthus palmeri; experiment: Post-emergence herbicidal action against Amaranthus palmeri; details: 21 DAT; 30 g of a.i./ha
In short: as §4

[6] = system: Abutilon theophrasti; experiment: Post-emergence herbicidal action against Abutilon theophrasti; details: 21 DAT
[7] = system: Lolium rigidum; experiment: Post-emergence herbicidal action against Lolium rigidum
In short: as §3

[8] = system: Poa annua; experiment: Post-emergence herbicidal action against Poa annua
In short: as §4

[9] = system: Eleusine indica; experiment: Post-emergence herbicidal action against Eleusine indica; details: (Z3) post-emergence, g of a.i./ha: 270, 90, 15, 5, 5 + 270, 15 + 90
From the text: as §1, §2

[10] = system: Panicum maximum; experiment: Post-emergence herbicidal action against Panicum maximum; details: g of a.i./ha: 200, 100, 100 + 200
Description: When the observed efficacies exceed the formal sum total of the values of the tests with individual applications, they also exceed the expected value according to Colby, which is calculated using the formula below and is likewise regarded as an indication of synergism (cf. S. R. Colby; in Weeds 15 (1967) p. 20 to 22): E^C=A+B−([…])
Here: • A=efficacy of the active compound (A) in % at an application rate of a g a.i./ha; • B=efficacy of the active compound (B) in % at an application rate of b g a.i./ha; • E^C=expected value of the effect of the combination (A)+(B) in % at the combined application rate a+b g a.i./ha.
Seeds or rhizome pieces of mono- and dicotyledonous weeds are placed in sandy loam in pots, covered with soil and grown in a greenhouse under good growth conditions (temperature, air humidity, water supply). Three weeks after sowing, the test plants were treated at the three-leaf stage with the compositions according to the invention. The compositions according to the invention formulated as spray powders or as emulsion concentrates were sprayed onto the green plant parts in various dosages with an application rate of 300 to 800 l/ha of water (equivalent). After the test plants have been left to stand in the greenhouse under optimal growth conditions for about 3 to 4 weeks, the action of the preparations is scored visually in comparison to untreated controls. The compositions according to the invention also have good post-emergence herbicidal activity against a broad spectrum of economically important gramineous and broadleaf weeds.

[11] = (Z61) post-emergence, g of a.i./ha: 4, 1, 270, 90, 4 + 270, 4 + 90, 1 + 270, 1 + 90, 90 g of a.i./ha
[12] = (Z61) post-emergence, g of a.i./ha: 4, 1, 270, 90, 4 + 270, 4 + 90, 1 + 270, 1 + 90, 270 g of a.i./ha

O=C(Nc1ccc(F)cc1F)c1cccnc1Oc1cccc(C(F)(F)F)c1 [(B2.18) Diflufenican]
Herbicidal action 21 DAT against Kochia scoparia [1]: 25%
Herbicidal action 28 DAT against Alopecurus myosuroides ([2]; (Z61) post-emergence, g of a.i./ha by row: 16, 4, 1, 270, 90, 16 + 270, 4 + 270, 4 + 90, 1 + 270, 1 + 90, 90 g of a.i./ha): 15%
Herbicidal action 28 DAT against Alopecurus myosuroides ([2]; (Z61) post-emergence, g of a.i./ha by row: 16, 4, 1, 270, 90, 16 + 270, 4 + 270, 4 + 90, 1 + 270, 1 + 90, 270 g of a.i./ha): 20%
Herbicidal action 14 DAT against Alopecurus myosuroides [2, 11]: 15%
Herbicidal action 14 DAT against Alopecurus myosuroides [2, 12]: 20%
Herbicidal action 28 DAT against Alopecurus myosuroides ([2]; (Z119) post-emergence, g of a.i./ha by row: 16, 1, 270, 90, 30, 16 + 270, 16 + 90, 16 + 30, 1 + 270, 1 + 90): 0%
Herbicidal action 14 DAT against Alopecurus myosuroides ([2]; (Z119) post-emergence, g of a.i./ha: 16, 1, 270, 16 + 270, 1 + 270): 10%
Herbicidal action 37 DAT against Digitaria sanguinalis [3]: 0%
Herbicidal action 21 DAT against Polygonum convolvulus ([4]; g of a.i./ha: 90, 30, 45, 45 + 90, 45 + 30, 30 g of a.i./ha): 10%
Herbicidal action 21 DAT against Polygonum convolvulus ([4]; g of a.i./ha: 90, 30, 45, 45 + 90, 45 + 30, 90 g of a.i./ha): 20%
Herbicidal action against Amaranthus palmeri (res.) [5]: 40%
Herbicidal action against Abutilon theophrasti ([6]; 30 g of a.i./ha): 10%
Herbicidal action against Abutilon theophrasti ([6]; 90 g of a.i./ha): 10%
Herbicidal action against Abutilon theophrasti ([6]; 270 g of a.i./ha): 25%
Herbicidal action 28 DAT against Lolium rigidum ([7]; 90 g of a.i./ha): 0%
Herbicidal action 28 DAT against Lolium rigidum ([7]; 270 g of a.i./ha): 0%
Herbicidal action 14 DAT against Lolium rigidum ([7]; (Z61) post-emergence, g of a.i./ha: 1, 270, 90, 30, 1 + 270, 1 + 90, 1 + 30, 30 g of a.i./ha): 0%
Herbicidal action 14 DAT against Lolium rigidum ([7]; (Z61) post-emergence, g of a.i./ha: 1, 270, 90, 30, 1 + 270, 1 + 90, 1 + 30, 270 g of a.i./ha): 10%
Herbicidal action 28 DAT against Lolium rigidum [7, 11]: 15%
Herbicidal action 28 DAT against Lolium rigidum [7, 12]: 20%
Herbicidal action 14 DAT against Lolium rigidum ([7]; (Z119) post-emergence, g of a.i./ha by row: 16, 1, 90, 270, 16 + 90, 1 + 270): 5%
Herbicidal action 28 DAT against Lolium rigidum ([7]; (Z119) post-emergence, g of a.i./ha: 16, 4, 1, 270, 90, 30, 16 + 270, 16 + 90, 16 + 30, 4 + 270, 4 + 90, 4 + 30, 1 + 270): 0%
Herbicidal action 28 DAT against Poa annua L. ([8]; 30 g of a.i./ha): 0%
Herbicidal action 28 DAT against Poa annua L. ([8]; 90 g of a.i./ha): 0%
Herbicidal action 28 DAT against Poa annua L. ([8]; 270 g of a.i./ha): 0%
Herbicidal action 14 DAT against Poa annua L. ([8]; (Z61) post-emergence, g of a.i./ha: 16, 1, 270, 90, 16 + 270, 16 + 90, 1 + 270, 1 + 90): 20%
Herbicidal action 28 DAT against Poa annua L. ([8]; (Z119) post-emergence, g of a.i./ha: 16, 1, 270, 90, 30, 16 + 270, 16 + 90, 16 + 30, 1 + 270): 0%
Herbicidal action 21 DAT against Eleusine indica ([9]; 90 g of a.i./ha): 20%
Herbicidal action 21 DAT against Eleusine indica ([9]; 270 g of a.i./ha): 30%
Herbicidal action 28 DAT against Panicum maximum [10]: 0%
